Measurements taken from the NIST ThermoML archive (doi:10.1021/je100287g).
Numbers after ± are expanded uncertainties.

Assay: cn = amount concentration of the nth substance listed, in mol/dm3
Settings: 101 kPa, Liquid, digital conductivity meter (CM-180, Elico India)

Nc1ccc(S(=O)(=O)[N-]c2nccs2)cc1.[Na+] [sodium ((4-aminophenyl)sulfonyl)(thiazol-2-yl)amide] + O
electrical conductivity [S/m]
Settings	c1 = 0.001	c1 = 0.002	c1 = 0.004	c1 = 0.006	c1 = 0.008	c1 = 0.01
283 K	0.0053 ± 0.0019	0.0101 ± 0.0018	0.0189 ± 0.0018	0.0281 ± 0.0018	0.0366 ± 0.0019	0.0468 ± 0.002
293 K	0.0064 ± 0.0024	0.0124 ± 0.0022	0.0233 ± 0.0022	0.0344 ± 0.0021	0.0447 ± 0.0023	0.0574 ± 0.0027
303 K	0.0078 ± 0.0029	0.0151 ± 0.0028	0.0288 ± 0.0027	0.0423 ± 0.0026	0.0545 ± 0.0028	0.07 ± 0.0034
313 K	0.00967 ± 0.0039	0.0195 ± 0.0034	0.0353 ± 0.0032	0.0516 ± 0.0031	0.0661 ± 0.0035	0.0866 ± 0.0041
